Source: PubChem BioAssay (NCI)
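GI50 is the concentration that inhibits growth by half. Definition used: TGI = concentration required for complete inhibition of growth.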

Key:
Test in all cases: NCI tumour cell line growth inhibition, 384-well format
SK-MEL-5 melanoma = system: SK-MEL-5 melanoma
CCRF-CEM leukemia = system: CCRF-CEM leukemia
MDA-MB-435 melanoma = system: MDA-MB-435 melanoma
SW-620 colon = system: SW-620 colon
NCI-H322M lung = system: NCI-H322M lung
EKVX NSCLC = system: EKVX NSCLC
HOP-62 NSCLC = system: HOP-62 NSCLC
HL-60(TB) leukemia = system: HL-60(TB) leukemia
CAKI-1 renal = system: CAKI-1 renal
BT-549 breast = system: BT-549 breast
HCC-2998 colon = system: HCC-2998 colon
RPMI-8226 leukemia = system: RPMI-8226 leukemia
HS 578T breast = system: HS 578T breast

| Structure (SMILES) | GI50 (SK-MEL-5 melanoma) | TGI (SK-MEL-5 melanoma) | GI50 (CCRF-CEM leukemia) | TGI (CCRF-CEM leukemia) | GI50 (MDA-MB-435 melanoma) | TGI (MDA-MB-435 melanoma) | GI50 (SW-620 colon) | TGI (SW-620 colon) | GI50 (NCI-H322M lung) | TGI (NCI-H322M lung) | GI50 (EKVX NSCLC) | TGI (EKVX NSCLC) | GI50 (HOP-62 NSCLC) | TGI (HOP-62 NSCLC) | GI50 (HL-60(TB) leukemia) | TGI (HL-60(TB) leukemia) | GI50 (CAKI-1 renal) | TGI (CAKI-1 renal) | GI50 (BT-549 breast) | TGI (BT-549 breast) | also measured |
| --- | --- | --- | --- | --- | --- | --- | --- | --- | --- | --- | --- | --- | --- | --- | --- | --- | --- | --- | --- | --- | --- |
| CN1CC[C@@H](c2c(O)cc(O)c3c(=O)cc(-c4ccc(C(F)(F)F)cc4Cl)oc23)[C@@H]1CO | 16.7 µM | 30.4 µM | 13.8 µM | 26.8 µM | 20.5 µM | 34.9 µM | 17.5 µM | 31.6 µM | 15.5 µM | 29.2 µM | 13.8 µM | 27.1 µM | 14.4 µM | 27.7 µM | 9.56 µM | 21.9 µM | 4.61 µM | 13.1 µM | 14.6 µM | 27.8 µM | GI50 (HCC-2998 colon): 13.2 µM; TGI (HCC-2998 colon): 26.2 µM; GI50 (RPMI-8226 leukemia): 7.71 µM; TGI (RPMI-8226 leukemia): 20.3 µM; GI50 (HS 578T breast): 13.4 µM; TGI (HS 578T breast): 26.3 µM |
| Cn1c(Nc2ccc(C(F)(F)F)cc2)nc2cc(Oc3ccnc(-c4ncc(C(F)(F)F)[nH]4)c3)ccc21 | 0.0704 µM | 0.617 µM | 0.231 µM | 1.17 µM | 0.0476 µM | 5.88 µM | 0.873 µM | 12.5 µM | 0.106 µM | 12.6 µM | 0.983 µM | 4.91 µM | 0.608 µM | 11.4 µM | 0.0386 µM | 1.07 µM | 0.0157 µM | 12.4 µM | 0.182 µM | 11.3 µM | GI50 (HCC-2998 colon): 0.0883 µM; TGI (HCC-2998 colon): 5.62 µM; GI50 (RPMI-8226 leukemia): 0.232 µM; TGI (RPMI-8226 leukemia): 2.09 µM; GI50 (HS 578T breast): 0.0391 µM; TGI (HS 578T breast): 6.25 µM |
